{"source": "paper PMC4205289", "about": "“Triptolide inhibits human immunodeficiency virus type 1 replication by promoting proteasomal degradation of Tat protein” (Retrovirology, 2014)", "tested_on": "Tat-induced HIV-1 LTR activation", "test": "HIV-1 LTR-luciferase reporter assay, Tat-induced, Jurkat cells", "assay_type": "cell-based", "details": "48 h", "experimental": "Jurkat cells were seeded in 24-well plates at a density of 2 × 10^5 cells per well. For TNF-α induction, cells were co-transfected with pLTR-Luc and pRL-TK in the presence or absence of the test compounds. Then, the cells were treated with 10 ng/mL TNF-α 36 h post-transfection. After induction for an additional 12 h, luciferase activity was analyzed. For Tat-induced LTR activation, Jurkat cells were co-transfected with pLTR-Luc (or pLTR-Luc-ΔkB), pEF1-Tat and pRL-TK, and cultured in the presence of various concentrations of test compounds for an additional 48 h before the determination of luciferase activity. Luciferase levels were expressed relative to levels in cells without induction.", "data": [{"smiles": "CC(C)[C@]12O[C@H]1[C@@H]1O[C@]13[C@]1(O[C@H]1C[C@H]1C4=C(CC[C@@]13C)C(=O)OC4)[C@@H]2O", "note": "[triptolide]", "values": [{"measurement": "effect on Tat-induced gene expression (pLTR-Luc)", "setting": "co-transfection with pEF1-Tat", "result": "inhibitory effect"}, {"measurement": "effect on Tat-mediated LTR activation, LTR with two mutated NF-κB binding sites", "setting": "pLTRΔκB-Luc", "result": "reduced the Tat-mediated LTR activation"}]}]}
